Measurements published in article PMC9508196 (Scientific Reports, 2022).
≈ marks a conversion by molar mass, not a printed value. Non-standard residues stand in square brackets, D forms with d. Residues, ends and D or L forms follow the SMILES beside them. No end group written: not given here.

Columns and labels:
A. baumannii ATCC 19,606 = experiment: microbe, parasite or virus in culture; conditions: 20 serial 24-h passages at half-MIC, MHB
Procedure: A. baumannii ATCC 19,606 was adjusted to approximately 10^6 CFU/ml in MHB. […] After 24 h incubation, bacterial suspensions of the wells at half-MIC concentration of tested agent were taken and washed 2 times with MHB to prepare the next initial-passage of bacteria. Twenty repeat passages were performed for each tested compound. Along with the test, a negative control was included: the MIC value of bacteria cultured in MHB-deionized water after 20 passages.

[1] = tested on: Escherichia coli O157:H7 MT strain; format: cell-based; conditions: E. coli O157:H7 MT strain; broth microdilution, MHB, 24 h, 37 °C, triplicate
[2] = tested on: Salmonella Typhimurium ATCC 13,311; format: cell-based; conditions: S. Typhimurium ATCC 13,311; broth microdilution, MHB, 24 h, 37 °C, triplicate
Summary of the method: (§1)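 Strains were grown at 37 °C with shaking (E. coli in LB), then mid-log cells diluted into Müeller-Hinton broth at 2–8 × 10^5 CFU/mL and exposed to serial agent concentrations. Non-turbid wells were plated for MBC.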

[3] = tested on: Staphylococcus aureus ATCC 25,923; format: cell-based; conditions: S. aureus ATCC 25,923; broth microdilution, MHB, 24 h, 37 °C, triplicate
Summary of the method: as §1

Compound	MIC after 20 passages (A. baumannii ATCC 19,606) [µg/mL]	MIC [1] [µg/mL]	MIC [2] [µg/mL]	MIC [3] [µg/mL]
CC[C@@H](C)[C@@H](NC(=O)[C@@H](CCCCN)NC(=O)CNC(=O)[C@@H](C)NC(=O)[C@H](NC(=O)[C@@H](CCCCN)NC(=O)[C@@H](CCCCN)NC(=O)[C@H](NC(=O)[C@@H](CCCNC(=N)N)NC(=O)[C@@H](CCCNC(=N)N)NC(=O)[C@@H](Cc1ccccc1)NC(=O)[C@@H](CC(C)C)NC(=O)[C@H](N)CCCNC(=N)N)C(C)C)C(C)C)C(=O)N[C@H](C)C(=O)N[C@H](CCCCN)C(=O)N[C@H](CCCNC(=N)N)C(=O)N[C@@H](C(=O)N[C@H](Cc1c[nH]c2ccccc12)C(=O)N[C@H](CCCCN)C(N)=O)[C@H](C)CC [D-AP19] (H-[dR][dL][dF][dR][dR][dV][dK][dK][dV][dA]G[dK][dI][dA][dK][dR][dI][dW][dK]-NH2)	7.81 (≈ 3.32 µM)	–	–	–
RLFRRVKKVAGKIAKRIWK-NH2 [AP19]	–	15.63	1.95	7.81
